Source: patent publication US12582654B2, “Cyano-substituted pyridine and cyano-substituted pyrimidine compound and preparation method therefor and application thereof” (BEIJING SCITECH-MQ PHARMACEUTICALS LIMITED, priority 2019, dated 2026)

Tests used:
[1] = target: FGFR4 kinase (Homo sapiens, UniProt P22455); test: Inhibition of FGFR4 kinase activity (ULight-labeled JAK-1 peptide, EU665/EU615 reading); type: biochemical; conditions: FGFR4 kinase 3.85 nM, ATP 100 μM, enzymatic reaction 2 hours
Procedure, shortened: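 TR-FRET kinase assay using 3.85 nM FGFR4, 100 μM ATP and 100 nM ULight-JAK-1 (Tyr1023) peptide; 5 min enzyme–compound preincubation, then 2 h at room temperature. Compounds at 11 3-fold dilutions from 2.5 μM down to 0.042 nM, 1% DMSO. IC50 from EU665/EU615 ratio inhibition curves.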

[2] = target: T1, Ba/F3 ETV6-FGFR4-V550L cells (Homo sapiens, UniProt P22455, V550L, cells depend on it); test: Inhibition of cell proliferation (CCK-8), Ba/F3 ETV6-FGFR4-V550L cells; type: cell-based; conditions: 72 hours of incubation, read-out: Ba/F3 ETV6-FGFR4-V550L IC50
T1 construct: fused on or other part: N-terminal part of ETV6 (TEL), the oligomerising partner of the fusion; already named as the first entry; P41212 (Transcription factor ETV6)
T1 sequence (P22455 whole entry V550L, the tested form may be a part): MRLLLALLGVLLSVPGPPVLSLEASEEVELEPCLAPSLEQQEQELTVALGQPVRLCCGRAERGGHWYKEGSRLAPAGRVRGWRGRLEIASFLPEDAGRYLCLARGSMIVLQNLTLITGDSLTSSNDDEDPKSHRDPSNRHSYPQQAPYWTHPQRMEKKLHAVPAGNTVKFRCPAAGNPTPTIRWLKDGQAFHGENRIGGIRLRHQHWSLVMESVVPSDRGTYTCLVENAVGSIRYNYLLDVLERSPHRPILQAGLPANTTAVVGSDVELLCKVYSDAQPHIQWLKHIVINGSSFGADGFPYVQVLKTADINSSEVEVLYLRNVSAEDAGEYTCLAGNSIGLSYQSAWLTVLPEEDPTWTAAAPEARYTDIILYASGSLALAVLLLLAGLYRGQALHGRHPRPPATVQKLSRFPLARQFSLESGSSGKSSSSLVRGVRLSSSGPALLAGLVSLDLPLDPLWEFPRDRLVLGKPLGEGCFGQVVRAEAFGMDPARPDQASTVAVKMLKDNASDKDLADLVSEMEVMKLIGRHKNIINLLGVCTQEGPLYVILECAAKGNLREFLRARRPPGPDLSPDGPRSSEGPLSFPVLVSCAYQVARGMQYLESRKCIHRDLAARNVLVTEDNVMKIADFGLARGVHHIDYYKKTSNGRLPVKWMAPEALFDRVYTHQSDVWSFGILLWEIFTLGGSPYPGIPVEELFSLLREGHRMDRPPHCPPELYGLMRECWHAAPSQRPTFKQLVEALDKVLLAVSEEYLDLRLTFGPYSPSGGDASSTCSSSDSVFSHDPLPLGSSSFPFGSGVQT
Procedure, shortened: (§1)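 Ba/F3 cells expressing ETV6-FGFR4 or ETV6-FGFR4-V550L exposed for 72 h to 9 concentrations from 4-fold serial dilution (0.25% DMSO final). Viability by CCK-8, OD 450 nm after 1–2 h at 37 °C, relative to untreated and cell-free blanks; IC50 from curve fitting.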

[3] = target: FGFR4 V550L kinase (Homo sapiens, UniProt P22455, V550L); test: Inhibition of FGFR4 V550L mutant kinase activity (ULight-labeled PolyGT, EU665/EU615 reading); type: biochemical; conditions: FGFR4 V550L kinase 1 nM, ATP 10 μM, enzymatic reaction 2 hours
FGFR4 V550L kinase, sequence (P22455 22-802 V550L): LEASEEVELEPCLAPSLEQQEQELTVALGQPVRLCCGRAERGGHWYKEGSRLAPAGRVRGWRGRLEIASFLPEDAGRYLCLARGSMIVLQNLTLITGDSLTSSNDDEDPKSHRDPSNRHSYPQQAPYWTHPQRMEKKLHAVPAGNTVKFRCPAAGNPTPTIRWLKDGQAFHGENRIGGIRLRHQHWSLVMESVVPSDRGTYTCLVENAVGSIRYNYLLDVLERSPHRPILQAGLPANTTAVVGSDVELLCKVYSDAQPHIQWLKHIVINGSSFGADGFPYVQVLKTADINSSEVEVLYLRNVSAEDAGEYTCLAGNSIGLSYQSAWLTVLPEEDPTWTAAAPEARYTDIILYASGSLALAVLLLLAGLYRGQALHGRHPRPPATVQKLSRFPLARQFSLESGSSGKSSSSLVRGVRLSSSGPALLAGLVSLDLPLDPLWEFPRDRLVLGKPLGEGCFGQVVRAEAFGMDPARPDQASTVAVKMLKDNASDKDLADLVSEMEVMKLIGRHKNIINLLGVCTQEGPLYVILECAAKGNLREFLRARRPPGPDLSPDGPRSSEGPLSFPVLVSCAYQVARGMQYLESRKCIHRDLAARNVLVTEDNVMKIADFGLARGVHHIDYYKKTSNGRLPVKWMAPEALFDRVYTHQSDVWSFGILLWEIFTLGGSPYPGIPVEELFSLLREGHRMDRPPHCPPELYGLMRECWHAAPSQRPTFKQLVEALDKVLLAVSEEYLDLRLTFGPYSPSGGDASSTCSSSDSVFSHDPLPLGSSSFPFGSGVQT
Procedure, shortened: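 TR-FRET kinase assay: 1 nM FGFR4 V550L, 10 μM ATP, 100 nM ULight-PolyGT substrate, 2 h at room temperature after 5 min compound–enzyme preincubation, 1% DMSO. Compound tested as 11-point 3-fold dilution from 2.5 μM to 0.042 nM final. Signal as EU665/EU615 ratio; IC50 fitted from % inhibition.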

[4] = target: T2, Ba/F3 ETV6-FGFR4 cells (Homo sapiens, UniProt P22455); test: Inhibition of cell proliferation (CCK-8), Ba/F3 ETV6-FGFR4 cells; type: cell-based; conditions: 72 hours of incubation, read-out: Ba/F3 ETV6-FGFR4 IC50
T2 construct: fused on or other part: N-terminal part of ETV6 (TEL), the oligomerising partner that makes the FGFR4 kinase constitutively active; P41212 (Transcription factor ETV6)
T2 sequence (P22455 whole entry, change not shown, the tested form may be a part): as the sequence (P22455 whole entry V550L, the tested form may be a part) above, with L550V counted along it
Procedure, shortened: as §1

[5] = mouse and monkey animal models; cited from earlier work
[6] = test system: FGF19 gene-amplified cells; conditions: cited from earlier work
[7] = test system: FGFR; conditions: cited from earlier work
[8] = test system: each subtype of FGFR; conditions: cited from earlier work

FGFR4 kinase, sequence (P22455 22-802): as the sequence (P22455 22-802 V550L) above, with L529V counted along it

C=CC(=O)Nc1cc(N2CCC(N3CCN(C)CC3)CC2)ccc1Nc1ncc(C#N)c(Nc2ccccc2SC(C)C)n1 [Example 81]
IC50 [1]: ≤ 10 nM | GI50 [2]: ≤ 10 nM | IC50 [3]: ≤ 10 nM | GI50 [4]: ≤ 10 nM

C=CC(=O)Nc1cc(N2CCN(CC)CC2)ccc1Nc1cc(N(C)C(=O)Nc2c(Cl)c(OC)cc(OC)c2Cl)ncn1 [Example H3B6527]
bile acid-related adverse effects [5]: without bile acid-related adverse effects | antitumor activity against FGF19 gene-amplified cells [6]: strong antitumor activity

CCN(CC)CCCCNc1ncc2cc(-c3cc(OC)cc(OC)c3)c(NC(=O)NC(C)(C)C)nc2n1 [PD173074]
FGFR inhibitory activity [7]: nanomolar inhibitory activity

C=CC(=O)N1CCN(CCCn2c(=O)c(-c3c(Cl)c(OC)cc(OC)c3Cl)cc3cnc(NC)nc32)CC1 [PRN-1371]
enzymatic inhibitory activity against each subtype of FGFR [8]: nanomolar levels
